Here are results for four molecules from patent US20050048579A1, “Tertiary structures of ICAM-1/LFA-1 modulators” (priority 2003, published 2005).

The target in data set [1] is ICAM-1/LFA-1 dependent cell aggregation (Homo sapiens, UniProt P05362). Particulars: literature reports; cited from earlier work.
The target of data set [2] is T1, LFA-1 binding to ICAM-1 (JY cells) (Homo sapiens, UniProt P05362).
T1 construct: endogenous in cells; host or cells: JY cells
Briefly: LFA-1:ICAM-1 dependent JY cell aggregation assay (2 hours). Type of data set: cell-based. Particulars: listed as I8 to alanine substitution. Here is the method: (§1) Cysteine-constrained peptides, synthesized by Biopeptide (San Diego, Calif., USA), were isolated using high-performance liquid chromatography, and their correct mass was confirmed by mass spectrometry. The peptides were dissolved in 5% dimethylsulfoxide in phosphate-buffered saline (PBS) at concentrations of 10 mm and stored at −80° C. until use. The mAb directed against LFA-1 (TS1/18) was purified from a hybridoma line ([…], Manassas, Va.) as described previously (Oj, V. T. & Herzenberg, T. (1980) Immunoglobulin-producing hybrid celllines. In Selected Methods in Cellular Immunology (Mishell, B. B. & Shiigi, S. M.,eds), H. H. Freeman, New York; Larson, R. S., Brown, D. C. & Sklar, L. A.(1997) Retinoic acid induces aggregation of the acute promyelocytic leukemia cell lineNB-4 by utilization of LFA-1 and ICAM-2.Blood 90, 2747-2756; Rothlein, R. & Springer, T. A. (1986) The requirement for lymphocyte function associated antigen 1 in homotypic leukocyte adhesion stimulated by phorbol ester. J. Exp.Med. 163, 1132-1149).
(§2) JY cells were maintained in RPMI-1640 medium supplemented with 10% fetal bovine serum at 37° C. in an atmosphere containing 5% CO2 in air. The aggregation of JY cells, which is dependent on LFA-1 binding to ICAM-1, was determined as previously reported (Shannon, J. P., Silva, M. V., Brown, D. C. & Larson, R. S. (2001) Novel cyclic peptide inhibits intercellular adhesion molecule-1-mediated cell aggregation. J. Pept. Res. 58, 140-150; Larson, R. S., Brown, D. C. & Sklar, L. A.(1997) Retinoic acid induces aggregation of the acute promyelocytic leukemia cell lineNB-4 by utilization of LFA-1 and ICAM-2.Blood 90, 2747-2756; Rothlein, R. & Springer, T. A. (1986) The requirement for lymphocyte function associated antigen 1 in homotypic leukocyte adhesion stimulated by phorbol ester. J. Exp.Med. 163, 1132-1149). Briefly, JY cells were washed twice with serum-free media and resuspended at a concentration of 4×10^5 cells/mL. Cells were then preincubated with various concentrations of peptides or mAb for 15 minutes at room temperature. A 50 μL aliquot of cells was seeded in each well of a 96-well flat-bottomed microtiterplate followed by the addition of either peptide or mAb to a final volume of 100 μL. Cells were allowed to aggregate at 37° C. in humidified air containing 5% CO2. Within each well, the number of aggregates and the total number of free (single) cells were counted by inverted phase microscopy. Percent aggregation, P, was then determined as follows: P=100(1−Ff/Fi), where Ff (Fi) is the final (initial) number of free cells. Percent aggregation was then used to calculate percent inhibition, I, as follows: […], where Pi (Pc) is the percent aggregation with modulatory peptide (control). The constants for 50% inhibition (IC50) were derived from a linear fit to the percent inhibition at four concentrations (50 μm, 100 μm, 500 μm, and 1 mm) of inhibitory peptide. Each experiment was performed at least three times, with each condition performed in duplicate. The data are reported as the mean values and the SDs of each IC50.

Data set [3] can be described thus: Solubility of the peptide. It counts as physicochemical. Particulars: NS, not soluble; precluded testing; listed as R4 to A mutation. Here is the method:
as §1

The subject of data set [4] is ischemia-reperfusion injury. Particulars: in vivo; cited from earlier work.
Data set [5] has as its target T1, LFA-1 binding to ICAM-1 (JY cells). The data set can be described thus: LFA-1:ICAM-1 dependent cell aggregation assay, slightly modified (360 minute incubations). Type of data set: cell-based. Here is the method: as §2
The same general procedure was used as described in Example 1.
The functional activity of each IP02 derivative was measured in a slightly-modified version of the previously described cell aggregation assay (Shannon, J. P., Silva, M. V., Brown, D. C., & Larson, R. S. (2001). Novel cyclic peptide inhibits intercellular adhesion molecule-1-mediated cell aggregation. J. Pept. Res. 58, 140-150; Merchant, S. H., Gurule, D. M., Larson, R. S. (2003). Amelioration of ischemia-reperfusion injury with cyclic peptide blockade of ICAM-1. Am. J. Physiol. Heart Circ. 284,H1260-1268; Larson, R. S., Brown, D. C., and Sklar, L. A. (1997). Retinoic acid induces aggregation of the acute promyelocytic leukemia cell line NB-4 by utilization of LFA-1 and ICAM-2. Blood 90, 2747-2756; Rothlein, R. and Springer, T. A. (1986). The requirement for lymphocyte function-associated antigen 1 in homotypic leukocyte adhesion stimulated by phorbol ester. J. Exp. Med. 163, 1132-1149). Longer incubations (360 minutes) were used here instead of the earlier 120 minute incubations in order to increase the observed differences among peptide antagonists. Of all the amino acid substitutions, replacement of R6 with K, to produce IP02-K6, improved the IC50 the most. […] Alternatively, replacement of L2 or L3 with V (IP02-V2 and IP02-V3) or A8 with L (IP02-L8) abrogated activity, with IC50s exceeding 1,000 μM.

Bridge positions count the residues as written; N and C are the ends. Peptide text beside a SMILES is read from it.

Chain of ICAM-1/LFA-1 dependent cell aggregation (P05362 28-532): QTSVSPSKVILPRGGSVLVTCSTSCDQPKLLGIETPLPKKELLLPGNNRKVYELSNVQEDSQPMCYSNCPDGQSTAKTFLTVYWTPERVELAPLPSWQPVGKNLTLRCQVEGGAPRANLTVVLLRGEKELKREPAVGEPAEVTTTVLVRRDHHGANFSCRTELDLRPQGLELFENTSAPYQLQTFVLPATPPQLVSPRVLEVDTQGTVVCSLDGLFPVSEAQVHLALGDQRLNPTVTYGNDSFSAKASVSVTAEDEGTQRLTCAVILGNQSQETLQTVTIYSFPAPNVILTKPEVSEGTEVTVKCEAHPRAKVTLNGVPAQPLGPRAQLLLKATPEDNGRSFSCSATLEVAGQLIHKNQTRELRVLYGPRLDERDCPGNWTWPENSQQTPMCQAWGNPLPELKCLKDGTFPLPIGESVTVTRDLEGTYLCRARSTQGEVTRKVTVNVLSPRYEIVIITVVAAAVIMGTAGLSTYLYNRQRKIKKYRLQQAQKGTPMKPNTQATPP
T1 sequence (P05362 28-532): as above

`CSCC[C@@H]1NC(=O)[C@H](CCCNC(=N)N)NC(=O)[C@H](CC(C)C)NC(=O)[C@H](CC(C)C)NC(=O)[C@@H](N)CSSC[C@@H](C(=O)O)NC(=O)[C@H](C)NC(=O)[C@H](CO)NC(=O)[C@H](CCCNC(=N)N)NC1=O` [IP01-A8, CLLRMRSAC] (H-CLLRMRSAC-OH; disulfide 1-9; N-terminus and C-terminus assumed): in data set [1], the “inhibition of ICAM-1/LFA-1 dependent cell aggregation (in words)” value was “enhanced inhibition”. Moreover, in data set [2], the “bioactivity after alanine substitution (in words)” value is reported as “retained significant bioactivity”.
`CC[C@H](C)[C@@H]1NC(=O)[C@H](CO)NC(=O)[C@H](CCCNC(=N)N)NC(=O)[C@H](CCSC)NC(=O)[C@H](C)NC(=O)[C@H](CC(C)C)NC(=O)[C@H](CC(C)C)NC(=O)[C@@H](N)CSSC[C@@H](C(=O)O)NC1=O` [IP01-A4, CLLAMRSIC] (H-CLLAMRSIC-OH; disulfide 1-9; N-terminus and C-terminus assumed): the “solubility of the peptide” value in data set [3] is listed as “insoluble”.
As to `CC[C@H](C)[C@@H]1NC(=O)[C@H](CO)NC(=O)[C@H](CCCNC(=N)N)NC(=O)[C@H](CCSC)NC(=O)[C@H](CCCNC(=N)N)NC(=O)[C@H](CC(C)C)NC(=O)[C@H](CC(C)C)NC(=O)[C@@H](N)CSSC[C@@H](C(=O)O)NC1=O` [IP01, CLLRMRSIC] (H-CLLRMRSIC-OH; disulfide 1-9; N-terminus and C-terminus assumed), the “inhibition of ICAM-1/LFA-1 dependent cell aggregation (in words)” value in data set [1] was “potent in vitro inhibitor”.
`CSCC[C@@H]1NC(=O)[C@H](CCCNC(=N)N)NC(=O)[C@H](CC(C)C)NC(=O)[C@H](CC(C)C)NC(=O)[C@@H](N)CSSC[C@@H](C(=O)O)NC(=O)[C@H](C)NC(=O)[C@H](CO)NC(=O)[C@H](CCCCN)NC1=O` [IP02-K6, CLLRMKSAC] (H-CLLRMKSAC-OH; disulfide 1-9; N-terminus and C-terminus assumed): the “inhibition of ICAM-1/LFA-1 dependent cell aggregation (in words)” value in data set [1] is listed as “more potent inhibitor of ICAM-1 than IP01”. Also, the “inhibition of ischemia-reperfusion injury (in words)” value in data set [4] is listed as “potent in vivo inhibitor”. Also, in data set [5], the “IC50 fold smaller than lead peptide IP01” value is given as about 6 fold.
